SMILES strings stand for the structures. Counter-ions that a name gives are not always drawn. Like-named read-outs stand apart in the source and are kept apart here.

This note sets out measurements from US9079866B2, “Flap modulators” (JANSSEN PHARMACEUTICA NV, priority 2013, dated 2015).

One assay concerns the target human FLAP (Homo sapiens (Human), UniProt P20292). Put plainly: FLAP binding assay (HTRF format). In a few lines: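 Reported data take the mean of two different plates carrying duplicate samples and use the HTRF ratio as the measured signal.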
Assay [1] relates to leukotriene pathway in human whole blood (LTB4 levels). Put plainly: Human whole blood assay (A23187-stimulated LTB4). Type of assay: cell-based. Conditions: Homo sapiens, human whole blood diluted 1:1 in RPMI, A23187-stimulated LTB4; read-out: LTB4 IC50 1:1. In a few lines: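 Heparinised human whole blood, diluted 1:1 in RPMI, was pre-incubated with test compounds for 15 min at 37° Celsius, then stimulated with A23187 (7 μg/mL) for 30 min at 37° Celsius. Plasma LTB4 was measured by immunoassay kit; IC50 from 4-parameter fit; single replicate, at least one healthy donor.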

Where [2] appears, read: human FLAP wild type, HTRF format, average of two plates, duplicates.
Where [3] appears, read: read-out: FLAP Binding wild type HTRF Ki.

Sequence of human FLAP (P20292 whole entry): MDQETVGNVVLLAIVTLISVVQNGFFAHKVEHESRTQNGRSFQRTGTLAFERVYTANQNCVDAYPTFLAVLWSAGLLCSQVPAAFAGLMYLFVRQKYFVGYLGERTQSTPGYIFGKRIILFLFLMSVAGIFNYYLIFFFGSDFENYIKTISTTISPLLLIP

Take `Nc1ncc(-c2ccc(-c3ccccc3S(=O)(=O)N3CCC[C@H]3CO)cc2F)cn1` [Example 277, [(2S)-1-{[4′-(2-Aminopyrimidin-5-yl)-3′-fluorobiphenyl-2-yl]sulfonyl}pyrrolidin-2-yl]methanol trifluoroacetic acid salt]: at human FLAP (setting [2]), the affinity, expressed as Ki, was 52 nM. For the same molecule, the 50% inhibitory concentration (IC50) (as a rule, the concentration that gives 50% inhibition) in assay [1] is over 1000 nM.
Turning to `C[C@@H](O)CNS(=O)(=O)c1ccccc1-c1ccc(-c2cnc(N)nc2)c(F)c1` [Example 278, 4′-(2-Aminopyrimidin-5-yl)-3′-fluoro-N-[(2R)-2-hydroxypropyl]biphenyl-2-sulfonamide-trifluoroacetic acid salt], the affinity on human FLAP (setting [2]) corresponds to a Ki of 36 nM. In addition, in assay [1], the IC50 is 95 nM.
Taken in the same sequence, the figures for `C[C@H](O)CNS(=O)(=O)c1ccccc1-c1ccc(-c2cnc(N)nc2)c(F)c1` [Example 279, 4′-(2-Aminopyrimidin-5-yl)-3′-fluoro-N-[(2S)-2-hydroxypropyl]biphenyl-2-sulfonamide trifluoroacetic acid salt] were 70 nM and 149 nM.
In the case of `CC(C)(CO)NS(=O)(=O)c1ccccc1-c1ccc(-c2cnc(N)nc2)c(F)c1` [Example 280, 4′-(2-Aminopyrimidin-5-yl)-3′-fluoro-N-(2-hydroxy-1,1-dimethylethyl)biphenyl-2-sulfonamide trifluoroacetic acid salt], the Ki (as a rule, a dissociation constant, usually derived from enzyme kinetics or from competition with a known ligand) on human FLAP (setting [3]) was 3 nM. Further, the IC50 in assay [1] is 87 nM.
Consider `Nc1ncc(-c2ccc(-c3ccccc3S(=O)(=O)N3CCN(CCO)CC3)cc2F)cn1` [Example 282, 2-(4-{[4′-(2-Aminopyrimidin-5-yl)-3′-fluorobiphenyl-2-yl]sulfonyl}piperazin-1-yl)ethanol trifluoroacetic acid salt], for which, on human FLAP (setting [3]), the Ki came to 750 nM. Besides, the 50% inhibitory concentration (IC50) in assay [1] worked out at 280 nM.
In turn, `Nc1ncc(-c2ccc(-c3ccccc3S(=O)(=O)NCC3CC3)cc2F)cn1` [Example 283, 4′-(2-Aminopyrimidin-5-yl)-N-(cyclopropylmethyl)-3′-fluorobiphenyl-2-sulfonamide trifluoroacetic acid] returned a Ki at human FLAP (setting [2]) of 9 nM. Also, the IC50 in assay [1] stood at 119 nM.
In the case of `Nc1ncc(-c2ccc(-c3ccccc3S(=O)(=O)NC3CC3)cc2F)cn1` [Example 284, 4′-(2-Aminopyrimidin-5-yl)-N-cyclopropyl-3′-fluorobiphenyl-2-sulfonamide trifluoroacetic acid salt], on human FLAP (setting [2]), the affinity corresponds to a Ki of 42 nM. For the same molecule, the IC50 in assay [1] turned out to be 1040 nM.
At human FLAP (setting [2]), `Nc1ncc(-c2ccc(-c3ccccc3S(=O)(=O)Nc3ccccc3)cc2F)cn1` [Example 285, 4′-(2-Aminopyrimidin-5-yl)-3′-fluoro-N-phenylbiphenyl-2-sulfonamide trifluoroacetic acid salt] registered a Ki of 3 nM. Besides, the half-maximal inhibitory concentration (IC50) in assay [1] was found to be 111 nM.
The matching figures for `C[C@@H](CO)NS(=O)(=O)c1ccccc1-c1ccc(-c2cnc(N)nc2)c(F)c1` [Example 286, 4′-(2-Aminopyrimidin-5-yl)-3′-fluoro-N-[(1S)-2-hydroxy-1-methylethyl]biphenyl-2-sulfonamide trifluoroacetic acid salt]: 142 nM and 206 nM.
On human FLAP (setting [2]), `Cc1cccc(-c2ccc(-c3cnc(N)nc3)c(F)c2)c1S(=O)(=O)NC(C)(C)C` [Example 287, 4′-(2-Aminopyrimidin-5-yl)-N-tert-butyl-3′-fluoro-3-methylbiphenyl-2-sulfonamide trifluoroacetic acid salt] gave an inhibition constant (Ki) of 9 nM. The concentration for half-maximal inhibition (IC50) in assay [1] amounted to 74 nM.
Turning to `CNS(=O)(=O)c1ccccc1-c1ccc(-c2cnc(N)nc2)c(F)c1` [Example 288, 4′-(2-Aminopyrimidin-5-yl)-3′-fluoro-N-methylbiphenyl-2-sulfonamide trifluoroacetic acid salt], on human FLAP (setting [2]), the affinity corresponds to a Ki of 103 nM. Besides, in assay [1], the IC50 came out at 420 nM.
The molecule `C[C@H](CO)NS(=O)(=O)c1ccccc1-c1ccc(-c2cnc(N)nc2)c(F)c1` [Example 289, 4′-(2-Aminopyrimidin-5-yl)-3′-fluoro-N-[(1R)-2-hydroxy-1-methylethyl]biphenyl-2-sulfonamide] returned an inhibition constant (Ki) at human FLAP (setting [2]) of 22 nM. Further, in assay [1], the concentration for half-maximal inhibition (IC50) is 36 nM.
Consider `Nc1ncc(-c2ccc(-c3ccccc3S(=O)(=O)N[C@H](c3ccccc3)C(F)(F)F)cc2F)cn1` [Example 291, 4′-(2-Aminopyrimidin-5-yl)-3′-fluoro-N-[(1R)-2,2,2-trifluoro-1-phenylethyl]biphenyl-2-sulfonamide trifluoroacetic acid salt], for which, on human FLAP (setting [3]), the Ki was found to be 7 nM. Also, the 50% inhibitory concentration (IC50) in assay [1] stood at 421 nM.
The matching figures for `Nc1ncc(-c2ccc(-c3ccccc3S(=O)(=O)N[C@@H](c3ccccc3)C(F)(F)F)cc2F)cn1` [Example 292, 4′-(2-Aminopyrimidin-5-yl)-3′-fluoro-N-[(1S)-2,2,2-trifluoro-1-phenylethyl]biphenyl-2-sulfonamide trifluoroacetic acid salt]: 12 nM and 1030 nM.
As to `CC(C)CNS(=O)(=O)c1ccccc1-c1ccc(-c2cnc(N)nc2)c(F)c1` [Example 294, 4′-(2-Aminopyrimidin-5-yl)-3′-fluoro-N-(2-methylpropyl)biphenyl-2-sulfonamide trifluoroacetic acid salt], affinity at human FLAP (setting [2]) was put at a Ki of 2 nM. For the same molecule, in assay [1], the half-inhibitory concentration (IC50) worked out at 248 nM.
At human FLAP (setting [2]), `CCNS(=O)(=O)c1ccccc1-c1ccc(-c2cnc(N)nc2)c(F)c1` [Example 295, 4′-(2-Aminopyrimidin-5-yl)-N-ethyl-3′-fluorobiphenyl-2-sulfonamide trifluoroacetic acid salt] showed an inhibitory constant (Ki) of 25 nM. Further, the 50% inhibitory concentration (IC50) in assay [1] was determined as 110 nM.
On to `CC(C)(NS(=O)(=O)c1ccccc1-c1ccc(-c2cnc(N)nc2)c(F)c1)C(F)(F)F` [Example 296, 4′-(2-Aminopyrimidin-5-yl)-3′-fluoro-N-(2,2,2-trifluoro-1,1-dimethylethyl)biphenyl-2-sulfonamide trifluoroacetic acid salt], for which, on human FLAP (setting [2]), the inhibition constant Ki was determined as 5 nM. For the same molecule, the half-inhibitory concentration (IC50) in assay [1] was determined as 66 nM.
Turning to `C[C@H](NS(=O)(=O)c1ccccc1-c1ccc(-c2cnc(N)nc2)c(F)c1)C(F)(F)F` [Example 297, 4′-(2-Aminopyrimidin-5-yl)-3′-fluoro-N-[(1S)-2,2,2-trifluoro-1-methylethyl]biphenyl-2-sulfonamide trifluoroacetic acid salt], the Ki on human FLAP (setting [3]) worked out at 5 nM. In addition, the concentration for half-maximal inhibition (IC50) in assay [1] was 45 nM.
As to `CCN(CC)S(=O)(=O)c1ccccc1-c1ccc(-c2cnc(N)nc2)c(F)c1` [Example 300, 4′-(2-Aminopyrimidin-5-yl)-N,N-diethyl-3′-fluorobiphenyl-2-sulfonamide trifluoroacetic acid salt], at human FLAP (setting [2]), affinity was put at a Ki of 13 nM. The concentration for half-maximal inhibition (IC50) in assay [1] came out at 120 nM.
The matching figures for `Nc1ncc(-c2ccc(-c3ccccc3S(=O)(=O)N3CCCCC3)cc2F)cn1` [Example 301, 5-[3-Fluoro-2′-(piperidin-1-ylsulfonyl)biphenyl-4-yl]pyrimidin-2-amine trifluoroacetic acid salt]: 13 nM and 204 nM.
On human FLAP (setting [2]), `CC(C)(C)NS(=O)(=O)c1ccccc1-c1ccc(-c2cnc(N)nc2)c(F)c1` [Example 305, 4′-(2-Aminopyrimidin-5-yl)-N-(tert-butyl)-3′-fluoro-[1,1′-biphenyl]-2-sulfonamide trifluoroacetic acid salt] registered an inhibition constant (Ki) of 2 nM. Moreover, the half-maximal inhibitory concentration (IC50) in assay [1] was 78 nM.
Consider `C[C@H](NS(=O)(=O)c1ccccc1-c1ccc(-c2cnc(N)nc2)c(F)c1)C(=O)OC(C)(C)C` [Example 307, tert-Butyl N-{[4′-(2-aminopyrimidin-5-yl)-3′-fluorobiphenyl-2-yl]sulfonyl}-L-alaninate], for which the Ki on human FLAP (setting [2]) is 4 nM. Besides, the IC50 in assay [1] turned out to be 416 nM.
Take `Nc1ncc(-c2ccc(-c3ccccc3NS(=O)(=O)N3CCCC3)cc2F)cn1` [Example 309, N-[4′-(2-Aminopyrimidin-5-yl)-3′-fluorobiphenyl-2-yl]pyrrolidine-1-sulfonamide]: at human FLAP (setting [2]), the affinity corresponds to a Ki of 214 nM. In addition, the IC50 in assay [1] was determined as 1780 nM.
With `Nc1ncc(-c2ccc(-c3ccccc3S(=O)(=O)N3CC4(COC4)C3)cc2F)cn1` [Example 312, 5-(2′-(2-Oxa-6-azaspiro[3.3]heptan-6-ylsulfonyl)-3-fluoro-[1,1′-biphenyl]-4-yl)pyrimidin-2-amine], the Ki at human FLAP (setting [2]) is 262 nM. Also, in assay [1], the 50% inhibitory concentration (IC50) stood at 376 nM.
Consider `Nc1ncc(-c2ccc(-c3ccccc3S(=O)(=O)N3CC4(C3)CS(=O)(=O)C4)cc2F)cn1` [Example 313, 6-((4′-(2-Aminopyrimidin-5-yl)-3′-fluoro-[1,1′-biphenyl]-2-yl)sulfonyl)-2-thia-6-azaspiro[3.3]heptane 2,2-dioxide], for which affinity at human FLAP (setting [2]) was put at a Ki of 397 nM. In addition, in assay [1], the IC50 amounted to 574 nM.
As for `Nc1ncc(-c2ccc(-c3ccccc3S(=O)(=O)N3CC(O)(C(F)(F)F)C3)cc2F)cn1` [Example 315, 1-((4′-(2-Aminopyrimidin-5-yl)-3′-fluoro-[1,1′-biphenyl]-2-yl)sulfonyl)-3-(trifluoromethyl)azetidin-3-ol], the inhibition constant Ki on human FLAP (setting [3]) is 1 nM. Further, the IC50 in assay [1] amounted to 27 nM.
In the case of `Nc1ncc(-c2ccc(-c3ccccc3S(=O)(=O)Cc3nc4ccccc4c(=O)[nH]3)cc2F)cn1` [Example 317, 2-(((4′-(2-Aminopyrimidin-5-yl)-3′-fluoro-[1,1′-biphenyl]-2-yl)sulfonyl)methyl)quinazolin-4(3H)-one], at human FLAP (setting [2]), the Ki was 335 nM. Moreover, the IC50 in assay [1] was over 10000 nM.
Molecule `Nc1ncc(-c2ccc(-c3ccccc3S(=O)(=O)CCCn3c(=O)[nH]c4ccccc43)cc2F)cn1` [Example 318, 1-(3-((4′-(2-Aminopyrimidin-5-yl)-3′-fluoro-[1,1′-biphenyl]-2-yl)sulfonyl)propyl)-1H-benzo[d]imidazol-2(3H)-one] gave an inhibition constant (Ki) at human FLAP (setting [2]) of 689 nM. Further, in assay [1], the IC50 amounted to 2000 nM.
